# Data: patent US12304914B2, “Pyrazolo[3,4-d]pyrrolo[1,2-b]pyridazinyl compounds useful as IRAK4 inhibitors” (BRISTOL-MYERS SQUIBB COMPANY, priority 2019, dated 2025)
# Biological target: IRAK4 (Homo sapiens (Human), UniProt Q9NWZ3)
# Assay: IRAK4 Inhibition Assay
# Type: biochemical
# Details: ATP 500 μM; FL-peptide 1.5 μM; IRAK4 0.6 nM; 60 min room temperature; Caliper LABCHIP 3000
# Procedure: The assays were performed in U-bottom 384-well plates. The final assay volume was 30 μL prepared from 15 μL additions of enzyme and substrates (fluoresceinated peptide and ATP) and test compounds in assay buffer (20 mM HEPES pH 7.2, 10 mM MgCl2, 0.015% Brij 35 and 4 mM DTT). The reaction was initiated by the combination of IRAK4 with substrates and test compounds. The reaction mixture was incubated at room temperature for 60 min. and terminated by adding 45 μL of 35 mM EDTA to each sample. The reaction mixture was analyzed on the Caliper LABCHIP® 3000 (Caliper, Hopkinton, MA) by electrophoretic separation of the fluorescent substrate and phosphorylated product. Inhibition data were calculated by comparison to no enzyme control reactions for 100% inhibition and vehicle-only reactions for 0% inhibition. The final concentrations of reagents in the assays are ATP, 500 μM; FL-IPTSPITTTYFFFKKK peptide 1.5 μM; IRAK4, 0.6 nM; and DMSO, 1.6%.
# IRAK4, sequence (Q9NWZ3 whole entry): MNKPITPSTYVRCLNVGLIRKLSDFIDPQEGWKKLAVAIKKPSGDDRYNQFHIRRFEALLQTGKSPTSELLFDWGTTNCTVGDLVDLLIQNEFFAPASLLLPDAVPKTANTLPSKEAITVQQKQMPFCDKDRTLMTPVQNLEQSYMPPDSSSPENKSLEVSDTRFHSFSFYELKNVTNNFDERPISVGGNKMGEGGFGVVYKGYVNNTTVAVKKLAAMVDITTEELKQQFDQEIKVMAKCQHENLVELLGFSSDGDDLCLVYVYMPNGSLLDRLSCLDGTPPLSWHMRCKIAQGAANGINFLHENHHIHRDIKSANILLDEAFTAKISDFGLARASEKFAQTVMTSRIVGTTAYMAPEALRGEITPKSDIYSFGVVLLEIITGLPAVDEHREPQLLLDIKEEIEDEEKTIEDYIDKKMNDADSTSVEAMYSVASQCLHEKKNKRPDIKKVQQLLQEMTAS
row,Compound,IC50 [nM]
1,"CC(C)n1nc(NCC2CCN(C)CC2)c2cnn3cc(-c4ccncc4)cc3c21 [Example 5, 1-isopropyl-N-((1-methylpiperidin-4-yl)methyl)-8-(pyridin-4-yl)-1H-pyrazolo[3,4-d] pyrrolo[1,2-b]pyridazin-3-amine]",143
2,"CC(=O)N1CCC(Nc2nn(C(C)C)c3c2cnn2cc(-c4ccncc4)cc32)CC1 [Example 8, 1-(4-((1-isopropyl-8-(pyridin-4-yl)-1H-pyrazolo[3,4-d]pyrrolo[1,2-b]pyridazin-3-yl)amino)piperidin-1-yl)ethan-1-one]",139
3,"COC(=O)NC1CCC(Nc2nn(C(C)C)c3c2cnn2cc(-c4ccncc4)cc32)CC1 (stereo not drawn) [Example 7, methyl (4-((1-isopropyl-8-(pyridin-4-yl)-1H-pyrazolo[3,4-d]pyrrolo[1,2-b]pyridazin-3-yl)amino)cyclohexyl)carbamate]",182
4,"COC(=O)N1CCC(CNc2nn(C(C)C)c3c2cnn2cc(-c4cccnc4)cc32)CC1 [Example 2, methyl 4-(((1-isopropyl-8-(pyridin-3-yl)-1H-pyrazolo[3,4-d]pyrrolo[1,2-b]pyridazin-3-yl)amino)methyl)piperidine-1-carboxylate]",1000
5,"CC(C)n1nc(NC2CCNCC2)c2cnn3cc(-c4ccncc4)cc3c21 [Example 9, 1-isopropyl-N-(piperidin-4-yl)-8-(pyridin-4-yl)-1H-pyrazolo[3,4-d]pyrrolo[1,2-b] pyridazin-3-amine]",756
6,"CC(C)n1nc(NCC2CCNCC2)c2cnn3cc(-c4cccnc4)cc3c21 [Example 1, 1-isopropyl-N-(piperidin-4-ylmethyl)-8-(pyridin-3-yl)-1H-pyrazolo[3,4-d]pyrrolo[1,2-b] pyridazin-3-amine]",896
7,"COC(=O)N1CCC(CNc2nn(C(C)C)c3c2cnn2cc(-c4ccncc4)cc32)CC1 [Example 4, methyl 4-(((1-isopropyl-8-(pyridin-4-yl)-1H-pyrazolo[3,4-d]pyrrolo[1,2-b]pyridazin-3-yl)amino)methyl)piperidine-1-carboxylate]",232
8,"COC(=O)NC1CCC(Nc2nn(C(C)C)c3c2cnn2cc(-c4cccnc4)cc32)CC1 (stereo not drawn) [Example 6, methyl (4-((1-isopropyl-8-(pyridin-3-yl)-1H-pyrazolo[3,4-d]pyrrolo[1,2-b]pyridazin-3-yl)amino)cyclohexyl)carbamate]",696
9,"CC(C)n1nc(NCC2CCNCC2)c2cnn3cc(-c4ccncc4)cc3c21 [Example 3, 1-isopropyl-N-(piperidin-4-ylmethyl)-8-(pyridin-4-yl)-1H-pyrazolo[3,4-d] pyrrolo[1,2-b]pyridazin-3-amine]",211
